Measurements reported in patent US9458137B2, “Substituted indol-5-ol derivatives and their therapeutical applications” (NantBioScience, Inc., priority 2012, dated 2016).

Legend:
Test in all cases: Kinase panel activity
Assay type in all cases: biochemical
Conditions in all cases: 0.1 μM, ATP Km
[1] = biological target: Fgr(h) (Homo sapiens, UniProt P09769)
Method: (§1) The effect of NTW-3475 on kinase activity was tested for a wide range of kinases and is shown in Table 2: Summary Sheet, Activity % ATP Concentration: Km

[2] = biological target: Pim-3(h) (Homo sapiens, UniProt Q86V86)
Method: as §1

[3] = biological target: FGFR3(h) (Homo sapiens, UniProt P22607)
Method: as §1

[4] = biological target: GCK(h) (Homo sapiens, UniProt Q12851)
Method: as §1

[5] = biological target: Ab1(h) (Homo sapiens, UniProt P00519)
Method: as §1

[6] = biological target: T1, MARK1(h) (Homo sapiens, UniProt Q9P0L2)
T1 construct: purchased Millipore (KinaseProfiler service)
Method: as §1

[7] = biological target: T2, MLK1(h) (Homo sapiens, UniProt P80192)
T2 construct: purchased Millipore (KinaseProfiler service)
Method: as §1

[8] = biological target: CDK5/p25(h) (Homo sapiens, UniProt Q00535)
Method: as §1

[9] = biological target: CDK2/cyclinE(h) (Homo sapiens, UniProt P24941)
Method: as §1

[10] = biological target: Fms(Y969C)(h) (Homo sapiens, UniProt P07333, Y969C)
Method: as §1

[11] = biological target: T3, Met(Y1248D)(h) (Homo sapiens, UniProt P08581, Y1230D)
T3 construct: purchased Millipore (KinaseProfiler service)
Method: as §1

[12] = biological target: HIPK3(h) (Homo sapiens, UniProt Q9H422)
Method: as §1

[13] = biological target: Ab1(Y253F)(h) (Homo sapiens, UniProt P00519, Y253F)
Method: as §1

[14] = biological target: F1t1(h) (Homo sapiens, UniProt P17948)
Method: as §1

[15] = biological target: T4, EphA8(h) (Homo sapiens, UniProt P29322)
T4 construct: purchased Millipore (KinaseProfiler service)
Method: as §1

[16] = biological target: T5, SAPK2b(h) (Homo sapiens, UniProt Q15759)
T5 construct: purchased Millipore (KinaseProfiler service)
Method: as §1

[17] = biological target: T6, ErbB4(h) (Homo sapiens, UniProt Q15303)
T6 construct: purchased Millipore (KinaseProfiler service)
Method: as §1

[18] = biological target: T7, MAPKAP-K2(h) (Homo sapiens, UniProt P49137)
T7 construct: purchased Millipore (KinaseProfiler service)
Method: as §1

[19] = biological target: DAPK1(h) (Homo sapiens, UniProt P53355)
Chain of DAPK1(h) (P53355 whole entry): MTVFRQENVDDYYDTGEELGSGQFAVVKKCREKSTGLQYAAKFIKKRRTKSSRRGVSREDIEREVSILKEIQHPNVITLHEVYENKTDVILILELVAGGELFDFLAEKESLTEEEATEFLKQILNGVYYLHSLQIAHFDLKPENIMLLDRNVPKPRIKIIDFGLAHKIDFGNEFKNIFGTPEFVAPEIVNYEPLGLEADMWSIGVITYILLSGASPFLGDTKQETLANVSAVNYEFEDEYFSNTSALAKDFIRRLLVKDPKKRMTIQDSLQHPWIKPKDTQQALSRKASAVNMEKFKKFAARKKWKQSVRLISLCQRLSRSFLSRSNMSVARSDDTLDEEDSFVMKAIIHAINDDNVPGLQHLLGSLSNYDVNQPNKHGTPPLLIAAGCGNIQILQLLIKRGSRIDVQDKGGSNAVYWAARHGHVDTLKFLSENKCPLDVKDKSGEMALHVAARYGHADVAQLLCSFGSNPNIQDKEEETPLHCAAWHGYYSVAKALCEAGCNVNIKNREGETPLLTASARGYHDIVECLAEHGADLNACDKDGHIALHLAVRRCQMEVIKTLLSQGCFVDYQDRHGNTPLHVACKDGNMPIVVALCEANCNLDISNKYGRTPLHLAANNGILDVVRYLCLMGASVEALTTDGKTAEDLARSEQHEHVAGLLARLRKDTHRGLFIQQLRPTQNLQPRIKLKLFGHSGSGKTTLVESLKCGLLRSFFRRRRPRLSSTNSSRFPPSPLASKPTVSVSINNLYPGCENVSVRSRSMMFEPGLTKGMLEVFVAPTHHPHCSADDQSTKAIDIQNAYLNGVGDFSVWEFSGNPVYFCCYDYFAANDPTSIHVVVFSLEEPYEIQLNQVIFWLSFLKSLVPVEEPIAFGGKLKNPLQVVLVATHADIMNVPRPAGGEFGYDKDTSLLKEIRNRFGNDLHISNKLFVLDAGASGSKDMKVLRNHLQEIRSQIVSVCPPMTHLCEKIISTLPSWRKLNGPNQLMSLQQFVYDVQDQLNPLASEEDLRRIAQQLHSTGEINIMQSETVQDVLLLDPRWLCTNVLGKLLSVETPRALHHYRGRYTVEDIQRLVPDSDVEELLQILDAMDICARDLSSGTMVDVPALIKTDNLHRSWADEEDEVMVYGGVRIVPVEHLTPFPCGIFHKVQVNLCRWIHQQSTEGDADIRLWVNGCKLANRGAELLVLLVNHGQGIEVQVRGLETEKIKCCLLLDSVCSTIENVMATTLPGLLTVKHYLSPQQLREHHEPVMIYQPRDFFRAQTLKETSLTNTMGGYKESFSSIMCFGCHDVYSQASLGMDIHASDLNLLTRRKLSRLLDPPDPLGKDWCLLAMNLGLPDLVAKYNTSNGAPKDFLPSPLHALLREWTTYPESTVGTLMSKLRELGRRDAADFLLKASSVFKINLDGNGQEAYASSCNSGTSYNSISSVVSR
Method: as §1

[20] = biological target: T8, MSK1(h) (Homo sapiens, UniProt O75582)
T8 construct: purchased Millipore (KinaseProfiler service)
T8 sequence (O75582 whole entry): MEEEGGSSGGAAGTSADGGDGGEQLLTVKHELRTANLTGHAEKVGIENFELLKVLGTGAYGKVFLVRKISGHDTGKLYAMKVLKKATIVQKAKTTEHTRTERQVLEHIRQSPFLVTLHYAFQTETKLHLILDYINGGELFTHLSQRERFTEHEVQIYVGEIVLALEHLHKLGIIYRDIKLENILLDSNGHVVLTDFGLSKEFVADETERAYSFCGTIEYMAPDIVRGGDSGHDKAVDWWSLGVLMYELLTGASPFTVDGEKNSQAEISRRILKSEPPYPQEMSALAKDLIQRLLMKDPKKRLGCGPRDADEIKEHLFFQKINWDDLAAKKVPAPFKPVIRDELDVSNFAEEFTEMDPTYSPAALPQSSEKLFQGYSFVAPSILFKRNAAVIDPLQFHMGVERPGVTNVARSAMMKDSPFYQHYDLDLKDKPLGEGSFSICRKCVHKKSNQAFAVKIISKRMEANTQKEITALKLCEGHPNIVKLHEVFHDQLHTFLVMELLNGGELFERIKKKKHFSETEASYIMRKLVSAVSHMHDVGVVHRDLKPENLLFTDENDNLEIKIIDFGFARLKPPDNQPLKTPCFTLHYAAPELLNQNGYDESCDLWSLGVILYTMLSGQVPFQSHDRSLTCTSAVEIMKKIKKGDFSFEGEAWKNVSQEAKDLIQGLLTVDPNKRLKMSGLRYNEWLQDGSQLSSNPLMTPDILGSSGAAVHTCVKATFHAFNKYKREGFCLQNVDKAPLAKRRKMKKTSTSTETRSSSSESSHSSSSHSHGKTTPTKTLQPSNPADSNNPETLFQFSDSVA
Method: as §1

[21] = biological target: CK1γ2(h) (Homo sapiens, UniProt P78368)
Method: as §1

[22] = biological target: T9, EphA1(h) (Homo sapiens, UniProt P21709)
T9 construct: purchased Millipore (KinaseProfiler service)
Method: as §1

[23] = biological target: BTK(R28H)(h) (Homo sapiens, UniProt Q06187, R28H)
Method: as §1

[24] = biological target: PAK6(h) (Homo sapiens, UniProt Q9NQU5)
Method: as §1

[25] = biological target: T10, RIPK2(h) (Homo sapiens, UniProt O43353)
T10 construct: purchased Millipore (KinaseProfiler service)
Method: as §1

[26] = biological target: Haspin(h) (Homo sapiens, UniProt Q8TF76)
Chain of Haspin(h) (Q8TF76 whole entry): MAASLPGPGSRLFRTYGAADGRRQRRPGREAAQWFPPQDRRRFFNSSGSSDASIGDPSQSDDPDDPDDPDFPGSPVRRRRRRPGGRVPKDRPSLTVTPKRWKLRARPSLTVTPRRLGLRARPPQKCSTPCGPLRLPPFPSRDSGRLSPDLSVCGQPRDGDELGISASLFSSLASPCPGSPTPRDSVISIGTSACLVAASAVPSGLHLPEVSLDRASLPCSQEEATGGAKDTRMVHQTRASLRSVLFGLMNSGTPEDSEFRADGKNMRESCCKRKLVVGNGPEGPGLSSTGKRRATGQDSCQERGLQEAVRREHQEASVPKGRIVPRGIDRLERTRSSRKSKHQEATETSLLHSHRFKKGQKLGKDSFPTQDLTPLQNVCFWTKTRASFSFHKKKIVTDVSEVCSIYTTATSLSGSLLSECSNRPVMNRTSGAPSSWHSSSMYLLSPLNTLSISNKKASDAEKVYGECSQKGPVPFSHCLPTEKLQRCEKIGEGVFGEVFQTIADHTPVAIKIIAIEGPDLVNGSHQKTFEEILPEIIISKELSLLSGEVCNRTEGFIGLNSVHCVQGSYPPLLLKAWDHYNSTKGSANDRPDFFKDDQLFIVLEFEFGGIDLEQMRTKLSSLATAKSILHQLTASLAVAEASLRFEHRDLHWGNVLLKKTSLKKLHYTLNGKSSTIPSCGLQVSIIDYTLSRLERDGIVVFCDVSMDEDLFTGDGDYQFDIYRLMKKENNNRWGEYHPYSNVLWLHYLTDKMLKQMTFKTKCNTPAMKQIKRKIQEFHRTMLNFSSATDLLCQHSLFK
Method: as §1

[27] = biological target: CHK2(II57T)(h) (Homo sapiens, UniProt O96017, I157T)
Method: as §1

[28] = biological target: T11, TAO3(h) (Homo sapiens, UniProt Q9H2K8)
T11 construct: purchased Millipore (KinaseProfiler service)
Method: as §1

[29] = biological target: T12, Tie2(h) (Homo sapiens, UniProt Q02763)
T12 construct: purchased Millipore (KinaseProfiler service)
Method: as §1

[30] = biological target: Arg(h) (Homo sapiens, UniProt P42684)
Method: as §1

[31] = biological target: T13, FAK(h) (Homo sapiens, UniProt Q05397)
T13 construct: purchased Millipore (KinaseProfiler service)
T13 sequence (Q05397 whole entry): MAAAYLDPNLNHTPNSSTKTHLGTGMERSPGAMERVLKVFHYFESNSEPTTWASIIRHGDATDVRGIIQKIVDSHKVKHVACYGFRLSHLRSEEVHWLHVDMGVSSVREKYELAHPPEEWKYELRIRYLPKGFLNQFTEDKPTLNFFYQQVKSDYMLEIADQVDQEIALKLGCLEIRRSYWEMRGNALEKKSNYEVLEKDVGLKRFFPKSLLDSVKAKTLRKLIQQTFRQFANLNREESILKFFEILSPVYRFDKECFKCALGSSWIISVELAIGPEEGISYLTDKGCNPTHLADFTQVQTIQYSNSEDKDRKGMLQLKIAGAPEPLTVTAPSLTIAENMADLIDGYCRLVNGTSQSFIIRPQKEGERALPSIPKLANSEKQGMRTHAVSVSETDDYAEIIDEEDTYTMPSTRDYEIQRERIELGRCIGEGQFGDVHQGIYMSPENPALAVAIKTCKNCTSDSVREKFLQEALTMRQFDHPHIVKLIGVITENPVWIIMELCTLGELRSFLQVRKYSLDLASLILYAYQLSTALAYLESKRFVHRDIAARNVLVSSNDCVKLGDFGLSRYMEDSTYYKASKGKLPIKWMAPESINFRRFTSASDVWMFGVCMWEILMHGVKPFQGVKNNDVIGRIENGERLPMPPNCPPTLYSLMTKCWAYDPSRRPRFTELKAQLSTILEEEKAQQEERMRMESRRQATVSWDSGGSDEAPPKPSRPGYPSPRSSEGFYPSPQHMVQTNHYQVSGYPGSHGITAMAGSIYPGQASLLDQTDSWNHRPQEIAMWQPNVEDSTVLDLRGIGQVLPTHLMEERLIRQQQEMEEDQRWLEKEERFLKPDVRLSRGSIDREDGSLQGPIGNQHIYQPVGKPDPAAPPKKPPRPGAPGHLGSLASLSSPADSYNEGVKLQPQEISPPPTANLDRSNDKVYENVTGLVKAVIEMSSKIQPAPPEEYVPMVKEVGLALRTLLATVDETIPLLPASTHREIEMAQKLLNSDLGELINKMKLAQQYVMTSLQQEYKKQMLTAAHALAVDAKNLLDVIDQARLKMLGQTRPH
Method: as §1

[32] = biological target: T14, Tec(h) activated (Homo sapiens, UniProt P42680)
T14 construct: purchased Millipore (KinaseProfiler service)
Method: as §1

[33] = biological target: GSK3β(h) (Homo sapiens, UniProt P49841)
Chain of GSK3β(h) (P49841 whole entry): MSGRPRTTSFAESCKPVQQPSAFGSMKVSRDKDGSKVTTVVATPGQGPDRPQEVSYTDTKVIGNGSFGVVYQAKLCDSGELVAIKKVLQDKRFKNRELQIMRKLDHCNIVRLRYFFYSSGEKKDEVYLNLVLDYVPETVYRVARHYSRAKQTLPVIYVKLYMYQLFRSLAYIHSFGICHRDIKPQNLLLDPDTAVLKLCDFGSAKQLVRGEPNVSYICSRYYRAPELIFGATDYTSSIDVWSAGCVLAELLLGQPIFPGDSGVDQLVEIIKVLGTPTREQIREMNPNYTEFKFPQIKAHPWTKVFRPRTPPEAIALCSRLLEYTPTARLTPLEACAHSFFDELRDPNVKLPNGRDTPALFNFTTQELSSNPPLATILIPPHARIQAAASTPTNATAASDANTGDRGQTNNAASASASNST
Method: as §1

[34] = biological target: GSK3α(h) (Homo sapiens, UniProt P49840)
Method: as §1

[35] = biological target: GRK6(h) (Homo sapiens, UniProt P43250)
Method: as §1

[36] = biological target: T15, TSSK2(h) (Homo sapiens, UniProt Q96PF2)
T15 construct: purchased Millipore (KinaseProfiler service)
T15 sequence (Q96PF2 whole entry): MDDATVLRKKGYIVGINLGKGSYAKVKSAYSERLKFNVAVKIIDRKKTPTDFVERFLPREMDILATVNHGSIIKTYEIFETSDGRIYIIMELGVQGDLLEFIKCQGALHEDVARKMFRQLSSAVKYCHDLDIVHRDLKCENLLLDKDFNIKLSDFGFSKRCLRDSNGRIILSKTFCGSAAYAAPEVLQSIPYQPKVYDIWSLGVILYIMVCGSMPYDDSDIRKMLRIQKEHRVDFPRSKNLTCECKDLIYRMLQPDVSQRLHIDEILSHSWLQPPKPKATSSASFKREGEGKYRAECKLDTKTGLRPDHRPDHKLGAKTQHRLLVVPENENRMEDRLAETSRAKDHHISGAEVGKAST
Method: as §1

[37] = biological target: PKCμ(h) (Homo sapiens, UniProt Q15139)
Method: as §1

[38] = biological target: T16, Rsk2(h) (Homo sapiens, UniProt P51812)
T16 construct: purchased Millipore (KinaseProfiler service)
Method: as §1

[39] = biological target: T17, SAPK3(h) (Homo sapiens, UniProt P53778)
T17 construct: purchased Millipore (KinaseProfiler service)
Method: as §1

[40] = biological target: T18, Rse(h) (Homo sapiens, UniProt Q06418)
T18 construct: purchased Millipore (KinaseProfiler service)
Method: as §1

- Activity % [1]: 2%
- Activity % [2]: 99%
- Activity % [3]: 0%
- Activity % [4]: 13%
- Activity % [5]: −9%
- Activity % [6]: 28%
- Activity % [7]: 7%
- Activity % [8]: 60%
- Activity % [9]: 89%
- Activity % [10]: 4%
- Activity % [11]: 21%
- Activity % [12]: 88%
- Activity % [13]: −2%
- Activity % [14]: 11%
- Activity % [15]: 16%
- Activity % [16]: 103%
- Activity % [17]: 90%
- Activity % [18]: 105%
- Activity % [19]: 88%
- Activity % [20]: 104%
- Activity % [21]: 134%
- Activity % [22]: 12%
- Activity % [23]: 103%
- Activity % [24]: 85%
- Activity % [25]: 90%
- Activity % [26]: 96%
- Activity % [27]: 112%
- Activity % [28]: 16%
- Activity % [29]: 0%
- Activity % [30]: −3%
- Activity % [31]: 78%
- Activity % [32]: 52%
- Activity % [33]: 106%
- Activity % [34]: 96%
- Activity % [35]: 69%
- Activity % [36]: 84%
- Activity % [37]: 95%
- Activity % [38]: 65%
- Activity % [39]: 115%
- Activity % [40]: 55%
Structure (SMILES): Cc1cc2c(F)c(Oc3nc(Nc4cc(C5CC5)[nH]n4)cc(N4CCN(C)CC4)n3)cc(F)c2[nH]1 [NTW-3475]
